Several values for one entry are separate records, joined by “and”; a condition that tells them apart may be missing. Identical values can stand only once. Toxic doses and inconclusive results are not listed.
Tested on: P388 leukemia ip, CD2F1 mice, survival T/C
Assay: NCI In Vivo Anticancer Drug Screen. Data for tumor model P388 Leukemia (intraperitoneal) in CD2F1 (CDF1) mice
Conditions: endpoint: median survival time, higher = longer survival
Summary of the method: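 Mice carrying the transplanted tumor received test compound or vehicle. Survival was recorded in each group, and the value is the treated-group measurement divided by that of the vehicle-treated control group.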

[1] = dose: 50.0 mg/kg/injection, schedule: Q01DX005 (ip), vehicle: saline with Tween-80
[2] = dose: 50.0 mg/kg/injection, schedule: Q01DX009 (ip), vehicle: Klucel (hydroxypropylcellulose) (HPC)
[3] = dose: 100.0 mg/kg/injection, schedule: Q01DX009 (ip), vehicle: Klucel (hydroxypropylcellulose) (HPC)
[4] = dose: 200.0 mg/kg/injection, schedule: Q01DX009 (ip), vehicle: Klucel (hydroxypropylcellulose) (HPC)
[5] = dose: 50.0 mg/kg/injection, schedule: Q01DX009 (ip), vehicle: saline with Tween-80
[6] = dose: 100.0 mg/kg/injection, schedule: Q01DX009 (ip), vehicle: saline with Tween-80
[7] = dose: 200.0 mg/kg/injection, schedule: Q01DX009 (ip), vehicle: saline with Tween-80
[8] = dose: 3.12 mg/kg/injection, schedule: Q01DX009 (ip), vehicle: saline
[9] = dose: 6.25 mg/kg/injection, schedule: Q01DX009 (ip), vehicle: saline
[10] = dose: 12.5 mg/kg/injection, schedule: Q01DX009 (ip), vehicle: saline
[11] = dose: 25.0 mg/kg/injection, schedule: Q01DX009 (ip), vehicle: saline
[12] = dose: 100.0 mg/kg/injection, schedule: Q01DX005 (ip), vehicle: saline with Tween-80
[13] = dose: 200.0 mg/kg/injection, schedule: Q01DX005 (ip), vehicle: saline with Tween-80
[14] = dose: 50.0 mg/kg/injection, schedule: Q01DX005 (ip), vehicle: Klucel (hydroxypropylcellulose) (HPC)
[15] = dose: 100.0 mg/kg/injection, schedule: Q01DX005 (ip), vehicle: Klucel (hydroxypropylcellulose) (HPC)
[16] = dose: 200.0 mg/kg/injection, schedule: Q01DX005 (ip), vehicle: Klucel (hydroxypropylcellulose) (HPC)
[17] = dose: 60.0 mg/kg/injection, schedule: Q01DX005 (ip), vehicle: saline with Tween-80
[18] = dose: 120.0 mg/kg/injection, schedule: Q01DX005 (ip), vehicle: saline with Tween-80
[19] = dose: 240.0 mg/kg/injection, schedule: Q01DX005 (ip), vehicle: saline with Tween-80

## CC1CN1P(=O)(c1ccccc1)N1CC1C (centres undefined)
dose: 12.5 mg/kg/injection, schedule: Q01DX005 (ip), vehicle: saline with Tween-80
  T/C: 108 % of control
dose: 12.5 mg/kg/injection, schedule: Q01DX005 (ip), vehicle: saline
  T/C: 100 % of control
dose: 25.0 mg/kg/injection, schedule: Q01DX005 (ip), vehicle: saline with Tween-80
  T/C: 100 % of control
dose: 25.0 mg/kg/injection, schedule: Q01DX005 (ip), vehicle: saline
  T/C: 95 % of control
[1]
  T/C: 104 % of control and 97 % of control
dose: 50.0 mg/kg/injection, schedule: Q01DX005 (ip), vehicle: saline
  T/C: 96 % of control
dose: 50.0 mg/kg/injection, schedule: Q01DX005 (ip), vehicle: suspension in saline
  T/C: 105 % of control
dose: 100.0 mg/kg/injection, schedule: Q01DX005 (ip), vehicle: suspension in saline
  T/C: 115 % of control

## Cc1[nH]nc2c(Cc3ccccc3)n[nH]c(=O)c12
[2]
  T/C: 102 % of control
[3]
  T/C: 104 % of control
[4]
  T/C: 112 % of control

## CCCCCCCCCCCCOc1ccc(Br)cc1C(=O)O
[5]
  T/C: 100 % of control
[6]
  T/C: 112 % of control
[7]
  T/C: 105 % of control

## O=P(c1ccccc1)(N1CC1)N1CC1
dose: 15.0 mg/kg/injection, schedule: Q04DX003 (ip), vehicle: saline
  T/C: 118 % of control
dose: 30.0 mg/kg/injection, schedule: Q04DX003 (ip), vehicle: saline
  T/C: 122 % of control

## [N-]=[N+]=CC(=O)NCC(=O)NNC(=O)c1ccccc1
[8]
  T/C: 92 % of control
[9]
  T/C: 87 % of control
[10]
  T/C: 100 % of control
[11]
  T/C: 87 % of control

## CC(/C=N/Nc1ccccc1)=N\N=c1/scc(-c2ccc(C)cc2)n1C1CCCCC1
[1]
  T/C: 94 % of control
[12]
  T/C: 96 % of control
[13]
  T/C: 89 % of control

## O=C1C(=O)c2c(ccc3ccccc23)-c2ccccc21
[14]
  T/C: 100 % of control
[2]
  T/C: 104 % of control
[15]
  T/C: 97 % of control
[3]
  T/C: 100 % of control
[16]
  T/C: 104 % of control
[4]
  T/C: 86 % of control
dose: 400.0 mg/kg/injection, schedule: Q01DX009 (ip), vehicle: Klucel (hydroxypropylcellulose) (HPC)
  T/C: 94 % of control

## CC(=O)Nc1cccc2[nH]c3ccccc3c(=O)c12
[1]
  T/C: 95 % of control
[12]
  T/C: 103 % of control
[13]
  T/C: 93 % of control

## O=C(OC1CCC2(CC1)SCCS2)c1ccccc1
dose: 100.0 mg/kg/injection, schedule: Q04DX003 (ip), vehicle: saline with Tween-80
  T/C: 100 % of control
dose: 200.0 mg/kg/injection, schedule: Q04DX003 (ip), vehicle: saline with Tween-80
  T/C: 100 % of control
dose: 400.0 mg/kg/injection, schedule: Q04DX003 (ip), vehicle: saline with Tween-80
  T/C: 104 % of control

## Cc1ccc(N2CCN(C(=O)C3=Cc4ccccc4OC3)CC2)cc1C
dose: 100.0 mg/kg/injection, schedule: Q04DX003 (ip), vehicle: Klucel (hydroxypropylcellulose) (HPC)
  T/C: 100 % of control
dose: 200.0 mg/kg/injection, schedule: Q04DX003 (ip), vehicle: Klucel (hydroxypropylcellulose) (HPC)
  T/C: 88 % of control

## C[CH2][Ge]([Cl])([Cl])[CH2]C
[14]
  T/C: 91 % of control
[15]
  T/C: 87 % of control

## CC(C)(C)OC(=O)NC(CCCCNC(=O)C(F)(F)F)C(=O)ON1C(=O)CCC1=O (centres undefined)
[5]
  T/C: 102 % of control
[6]
  T/C: 99 % of control
[7]
  T/C: 106 % of control

## NC(C(=O)O)/C1=C/CCCCCC1 (centres undefined)
dose: 25.0 mg/kg/injection, schedule: Q01DX005 (ip), vehicle: Klucel (hydroxypropylcellulose) (HPC)
  T/C: 106 % of control
[14]
  T/C: 101 % of control
[15]
  T/C: 98 % of control
[16]
  T/C: 101 % of control

## O=C(NO)c1coc2ccccc2c1=O
[17]
  T/C: 101 % of control
[18]
  T/C: 103 % of control

## CN1c2ccccc2C(C)(C)C12Cc1c(N)ncc(C#N)c1N2 (centres undefined)
[5]
  T/C: 91 % of control
[6]
  T/C: 88 % of control
[7]
  T/C: 93 % of control

## C[C@H]1CN[C@@H]2[C@@H](C)[C@H]3[C@@H](C[C@H]4[C@@H]5CC[C@H]6C[C@@H](N)CC[C@]6(C)[C@H]5CC[C@]34C)O[C@@]2(O)C1
[8]
  T/C: 103 % of control
[9]
  T/C: 94 % of control
[10]
  T/C: 100 % of control
[11]
  T/C: 98 % of control

## CNS(=O)(=O)Cc1ccccc1
dose: 50.0 mg/kg/injection, schedule: Q01DX009 (ip), vehicle: saline
  T/C: 107 % of control
dose: 100.0 mg/kg/injection, schedule: Q01DX009 (ip), vehicle: saline
  T/C: 107 % of control
dose: 200.0 mg/kg/injection, schedule: Q01DX009 (ip), vehicle: saline
  T/C: 100 % of control
dose: 400.0 mg/kg/injection, schedule: Q01DX009 (ip), vehicle: saline
  T/C: 108 % of control

## CC1=CC(=O)[C@@H](O)[C@]2(C)[C@H]3[C@@H](O)[C@H](O)[C@@]4(C)OC[C@@]35[C@@H](C[C@@H]12)OC(=O)C[C@]54O
dose: 1.0 mg/kg/injection, schedule: Q01DX009 (ip), vehicle: saline
  T/C: 115 % of control
dose: 8.0 mg/kg/injection, schedule: Q01DX009 (ip), vehicle: saline
  T/C: 153 % of control

## O=C(N/N=C/c1cc(Cl)cc(Cl)c1O)c1ccccc1
dose: 100.0 mg/kg/injection, schedule: Q01DX001 (ip), vehicle: saline with Tween-80
  T/C: 96 % of control
dose: 200.0 mg/kg/injection, schedule: Q01DX001 (ip), vehicle: saline with Tween-80
  T/C: 98 % of control
dose: 400.0 mg/kg/injection, schedule: Q01DX001 (ip), vehicle: saline with Tween-80
  T/C: 103 % of control

## O=C(CCCl)Nc1cccc(/C=C/C(=O)c2ccccc2NC(=O)CCCl)c1
[17]
  T/C: 99 % of control
[18]
  T/C: 99 % of control
[19]
  T/C: 93 % of control

## Cc1cc(-c2c(C)[nH]n(-c3cc(C)c4cc(F)ccc4n3)c2=O)n(-c2cc(C)c3cc(F)ccc3n2)n1
[17]
  T/C: 102 % of control
[18]
  T/C: 101 % of control
[19]
  T/C: 98 % of control

## CC(c1ccccc1)c1cc(C(C)(C)C)c(O)c(C(C)(C)C)c1 (centres undefined)
dose: 50.0 mg/kg/injection, schedule: Q01DX005 (ip), vehicle: distilled water + alcohol
  T/C: 100 % of control
dose: 100.0 mg/kg/injection, schedule: Q01DX005 (ip), vehicle: distilled water + alcohol
  T/C: 99 % of control
dose: 200.0 mg/kg/injection, schedule: Q01DX005 (ip), vehicle: distilled water + alcohol
  T/C: 93 % of control

## O=NN(C(=O)NC1CCC(O)CC1)C1CCC(O)CC1 (centres undefined)
dose: 25.0 mg/kg/injection, schedule: Q01DX001 (ip), vehicle: distilled water + Tween-80
  T/C: 102 % of control
dose: 50.0 mg/kg/injection, schedule: Q01DX001 (ip), vehicle: distilled water + Tween-80
  T/C: 99 % of control
dose: 100.0 mg/kg/injection, schedule: Q01DX001 (ip), vehicle: distilled water + Tween-80
  T/C: 106 % of control
dose: 200.0 mg/kg/injection, schedule: Q01DX001 (ip), vehicle: distilled water + Tween-80
  T/C: 101 % of control

## C=C1C(C2=NCCN2O)OC2OC(C)(C)OC12 (centres undefined)
dose: 100.0 mg/kg/injection, schedule: Q04DX002 (ip), vehicle: Klucel (hydroxypropylcellulose) (HPC)
  T/C: 98 % of control
dose: 200.0 mg/kg/injection, schedule: Q04DX002 (ip), vehicle: Klucel (hydroxypropylcellulose) (HPC)
  T/C: 103 % of control
dose: 400.0 mg/kg/injection, schedule: Q04DX002 (ip), vehicle: Klucel (hydroxypropylcellulose) (HPC)
  T/C: 97 % of control

## COC(=O)C(CCc1ccc([N+](=O)[O-])cc1)C(C)=O (centres undefined)
dose: 60.0 mg/kg/injection, schedule: Q01DX005 (ip), vehicle: saline
  T/C: 102 % of control
dose: 120.0 mg/kg/injection, schedule: Q01DX005 (ip), vehicle: saline
  T/C: 97 % of control
dose: 240.0 mg/kg/injection, schedule: Q01DX005 (ip), vehicle: saline
  T/C: 95 % of control

## C=C(Cl)C(=NC(C)(C)C)Nc1ccccc1
[14]
  T/C: 102 % of control
[15]
  T/C: 92 % of control

## Cc1cc(Br)c2c(c1)C(C(F)(F)F)(C(F)(F)F)OC(C)(C)N2
[2]
  T/C: 94 % of control
[3]
  T/C: 100 % of control
[4]
  T/C: 101 % of control

## CC(=O)OC1CN(C)CC=C1c1ccccc1 (centres undefined)
dose: 15.0 mg/kg/injection, schedule: Q01DX005 (ip), vehicle: saline with Tween-80
  T/C: 91 % of control
dose: 30.0 mg/kg/injection, schedule: Q01DX005 (ip), vehicle: saline with Tween-80
  T/C: 97 % of control
[17]
  T/C: 100 % of control and 97 % of control

## COc1ccc(/C=C2/OC(=O)C(C(C)=O)=C2O)cc1
[2]
  T/C: 115 % of control
[3]
  T/C: 100 % of control

— PubChem BioAssay AID330 (DTP/NCI, 2004)
